Laboratory results as given in the METLIN SMRT retention time set (Domingo-Almenara et al. 2019).

Experiment: gradient 5% acetonitrile 3 min, to 50% in 2 min, to 85% in 15 min, held 3 min, 100 µL/min
Conditions: column: Zorbax Extend-C18 2.1 x 50 mm; eluents: water / acetonitrile, 0.1% formic acid
In short: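 Using water and acetonitrile that each contained 0.1% formic acid, mixtures of ~100 pure standards were separated at 100 μL/min on a Zorbax Extend-C18 column (2.1 × 50 mm, 1.8 μm). The HPLC fed a quadrupole time-of-flight mass spectrometer working in positive and negative ionization mode, with dead and dwell volumes of 40 μL and 900 μL. Data were acquired over 3 months. Retention time was read from computationally picked adduct peaks after manual inspection of each.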

Work on `CN1c2cc(C(=O)NCc3ccc(OC(F)(F)F)cc3)ccc2C(=O)N2CCCCC21` (stereo not drawn) yielded an RP-LC retention time of 932 s.
`CC1(C)CC(=O)c2cn(-c3ccc(Cl)cc3)c(=O)c(C(=O)N3CCOCC3)c2C1` gave an RP-LC retention time of 757 s.
In the case of `CCOc1ccc(C(=O)N2CCN(c3cc(-c4cccs4)[nH]n3)CC2)cc1`, the RP-LC retention time is reported as 812 s.
`Cc1nc(N2CCCC2)c2c(C(=O)NCCc3ccc(Cl)cc3)c(C)oc2n1` showed an RP-LC retention time of 782 s.
Work on `Cc1cc(C(=O)N2CCCCC2)c2c(=O)n(Cc3nc(-c4ccccc4)oc3C)c(=O)n(C)c2n1` yielded an RP-LC retention time of 1020 s.
Work on `Cc1ccc(CCNC(=O)c2cc3n(n2)CC(C)(C(=O)NCc2ccc(F)cc2)N(C)C3=O)cc1` (stereo not drawn) yielded an RP-LC retention time of 828 s.
For `COCCCNC(=O)c1ncoc1-c1ccccc1C(=O)N1CCCC1`, the RP-LC retention time was 645 s.
In the case of `CCOc1ccccc1NC(=O)Cn1nc(N2CCSCC2)c2ccccc2c1=O`, the RP-LC retention time is reported as 929 s.
Work on `O=C(Nc1cccc(Br)c1)C1CCCN(c2ncc(-c3cccc(F)c3)cn2)C1` (stereo not drawn) yielded an RP-LC retention time of 1260 s.
Work on `c1cc(-c2noc(C3CCC3)n2)cc(N2CCOCC2)n1` yielded an RP-LC retention time of 804 s.
Compound `Cc1nc([C@@H]2CN(C(=O)c3ccc(Cl)s3)C[C@H]2C(N)=O)n[nH]1` has an RP-LC retention time of 608 s.
In the case of `Cc1ccc(NC(=O)Cn2ccc3ccc(-c4nnc(C)o4)cc32)nc1`, the RP-LC retention time is reported as 690 s.
With `COc1ccc(-n2c(=O)c3sccc3n(Cc3nc(-c4ccccc4Cl)no3)c2=O)cc1` the RP-LC retention time was 946 s.
`CN1CCN(C(=O)Cn2cccc2-c2nc(-c3ccccc3)cs2)CC1` showed an RP-LC retention time of 664 s.
For `COc1ccc(NC(=O)Cn2nc3nc(N4CCCC(C)C4)ccn3c2=O)cc1Cl` (stereo not drawn), the RP-LC retention time was 717 s.
For `Cn1cnc2c(C(=O)NC3CCCCC3)nn(-c3ccccc3)c2c1=O`, the RP-LC retention time was 855 s.
In the case of `COc1cc(C)c(Cl)cc1S(=O)(=O)N1CCN(C(=O)c2ccco2)CC1`, the RP-LC retention time is reported as 797 s.
`CS(=O)(=O)N(C1CCOCC1)C1CN(C(=O)NCc2ccccc2)C1` gave an RP-LC retention time of 660 s.
Work on `COc1ccc(NC(=O)CCCSc2ccc(F)cc2)c([N+](=O)[O-])c1` yielded an RP-LC retention time of 983 s.
For `Cc1cn2c(S(=O)(=O)N3CCCCC3)c(C(C)C)nc2s1`, the RP-LC retention time was 1020 s.
Compound `O=c1c(NCCc2cccnc2)nc2ccncc2n1Cc1ccccc1` has an RP-LC retention time of 539 s.
`COc1cccc(NC(=O)Cn2c(C)cc(-c3nnc(-c4ccccc4)o3)c2C)c1` showed an RP-LC retention time of 921 s.
For `COc1ccccc1CNC(=O)Cn1ccc2ccc(-c3nnc(C)o3)cc21`, the RP-LC retention time was 763 s.
In the case of `Cn1cc(-c2cc3n(n2)CCC(=O)N3CCCC(=O)Nc2ccccc2F)c2ccccc21`, the RP-LC retention time is reported as 844 s.
`CCOc1ccccc1-c1csc(NC(=O)c2sc(COc3cc(C)ccc3C)nc2C)n1` showed an RP-LC retention time of 1030 s.
`COCC(=O)Nc1ccc2nc(N3CCN(C4CCCCC4)CC3)cc(C(=O)O)c2c1` showed an RP-LC retention time of 558 s.
For `COc1ccc(-c2cc(C(=O)Nc3cc(Cl)ccc3C)no2)cc1`, the RP-LC retention time was 1150 s.
Compound `COc1ccccc1CC(=O)N1CCCC1c1cc(C)on1` (stereo not drawn) has an RP-LC retention time of 761 s.
For `O=C(NC1CC1)c1nc(C(=O)N2CCN(c3ccc(F)cc3)CC2)cs1`, the RP-LC retention time was 788 s.
For `CC1CCN(S(=O)(=O)N2CCCC(C(=O)NCCCN3CCc4ccccc4C3)C2)CC1` (stereo not drawn), the RP-LC retention time was 714 s.
`CCOC(=O)c1[nH]c(C)c(C(=O)N2CCC(CC(=O)N(C)Cc3ccco3)CC2)c1C` showed an RP-LC retention time of 729 s.
`Cc1nnc(N2CCCC(C(=O)NCc3ccc(F)cc3)C2)c2nn(-c3ccc(Cl)cc3)c(C)c12` (stereo not drawn) gave an RP-LC retention time of 771 s.
For `CCc1nn2c(CNS(=O)(=O)Cc3ccc(Cl)cc3)c(-c3ccccc3)nc2s1`, the RP-LC retention time was 1020 s.
`COc1ccc(Br)cc1CNC(=O)CCC(=O)N1Cc2cccn2-c2ccccc21` gave an RP-LC retention time of 993 s.
Compound `COCCOC1CCN(S(=O)(=O)Cc2ccccc2F)CC1` has an RP-LC retention time of 809 s.
`CCOc1ccc(-c2nc(-c3ccc4c(c3)oc(=O)n4C(C)C)no2)cc1` showed an RP-LC retention time of 1230 s.
In the case of `CSc1cccc(NC(=O)C2CCCN(C(=O)c3ccc(Cl)cc3)C2)c1` (stereo not drawn), the RP-LC retention time is reported as 973 s.
Compound `Cn1nccc1-c1cccc(-c2noc(C3(c4ccccc4)CC3)n2)c1` has an RP-LC retention time of 1150 s.
In the case of `COc1cccc(NC(=O)C2CCN(c3nc4ccc(-c5cncnc5)nc4s3)CC2)c1`, the RP-LC retention time is reported as 736 s.
Compound `Cc1ccc(C)c(S(=O)(=O)N2CCCN(c3ccc(=O)n(-c4ccccc4)n3)CC2)c1` has an RP-LC retention time of 947 s.
In the case of `COc1ccc2[nH]cc(CCNC(=O)C(C)C3CCN(S(=O)(=O)c4cccs4)CC3)c2c1` (stereo not drawn), the RP-LC retention time is reported as 827 s.
Work on `Cn1c(C2CCN(C(=O)Nc3ccccc3C(F)(F)F)CC2)cc(=O)n2nccc12` yielded an RP-LC retention time of 654 s.
In the case of `CCC(=O)N1N=C(c2cccs2)CC1c1cccs1` (stereo not drawn), the RP-LC retention time is reported as 880 s.
`Cc1ccc(S(=O)(=O)N2CCCOC2CNC(=O)C(=O)NCc2cccs2)cc1` (stereo not drawn) gave an RP-LC retention time of 806 s.
Compound `CON(C)C(=O)C1CN(C(=O)COc2ccccc2F)C1` has an RP-LC retention time of 629 s.
`CCN1c2ccccc2C(=O)NC12CCN(C(=O)Nc1ccc3c(c1)OCCO3)CC2` gave an RP-LC retention time of 737 s.
Compound `Cc1cccc(NC(=O)N2CCCC2c2nc(-c3ccc(F)cc3F)no2)c1C` (stereo not drawn) has an RP-LC retention time of 981 s.
For `COc1cc(CN2CCc3nc(N4CCC(C)CC4)ncc3C2)ccc1OC(C)C`, the RP-LC retention time was 764 s.
With `CC(C)CNC(=O)N1CCC(CCOc2ccncc2)CC1` the RP-LC retention time was 594 s.
Compound `CCOC(=O)c1[nH]c(C)c(C(=O)C(C)N(CC(C)C)C(=O)c2ccc(C)cc2)c1C` (stereo not drawn) has an RP-LC retention time of 1030 s.
`CN(C)C(=O)c1ccc2c(c1)N(CC(=O)N1CCN(c3ccccc3)CC1)C(=O)C1CCCCN21` (stereo not drawn) gave an RP-LC retention time of 778 s.
With `Cc1cc(C)c(Cn2cnc3ccccc32)c(C)c1` the RP-LC retention time was 611 s.
Work on `Cn1c(=O)n(CC(=O)O)c(=O)c2c1nc1n2CCCN1c1ccc(Br)cc1` yielded an RP-LC retention time of 751 s.
In the case of `CCCCN1CCc2nc(N3CCN(c4ccccc4F)CC3)ncc2C1`, the RP-LC retention time is reported as 715 s.
With `NS(=O)(=O)c1ccc(NC(=O)CN2C(=O)c3ccccc3C2=O)cc1` the RP-LC retention time was 623 s.
In the case of `Cc1cccc(-c2nnc(Cc3nc(-c4ccccc4)no3)o2)c1`, the RP-LC retention time is reported as 1040 s.
For `CCOc1ccc(CC(=O)NC(C)C(=O)Nc2nc3ccccc3[nH]2)cc1OCC` (stereo not drawn), the RP-LC retention time was 668 s.
`COc1ccc(C2=NN(S(C)(=O)=O)C(c3ccc4nccnc4c3)C2)c(F)c1` (stereo not drawn) gave an RP-LC retention time of 740 s.
Work on `CC(C)NC(=O)c1nc(-c2cn(-c3cccc(F)c3)nn2)no1` yielded an RP-LC retention time of 834 s.
Compound `Cc1ccsc1C(=O)NCC12CCCC=C1N(CC1CC1)C(=O)CC2` (stereo not drawn) has an RP-LC retention time of 904 s.
`Cc1ccc(-c2cc3c(N4CCC(C(=O)NC(C)C)CC4)nccn3n2)c(C)c1` gave an RP-LC retention time of 769 s.
Work on `CCCOC(=O)c1ccc(Nc2nc(C(=O)OCC)nc3ccccc23)cc1` yielded an RP-LC retention time of 1020 s.
For `CCN1CCC(N(Cc2cccs2)C(=O)Nc2cc(OC)c(OC)c(OC)c2)CC1`, the RP-LC retention time was 628 s.
Compound `Cn1nc(C(=O)OCc2cc(-c3ccc(Cl)cc3)on2)ccc1=O` has an RP-LC retention time of 812 s.
`CCc1cccc(NC(=O)Nc2cnn(-c3ncc(N(C)C)cn3)c2)c1` showed an RP-LC retention time of 772 s.
In the case of `CC(C)N1C(=O)c2cccnc2Sc2cc(C(=O)NC3CCCC3)ccc21`, the RP-LC retention time is reported as 812 s.
`CCNC(=O)C1CCN(c2nc3ncn(CC(=O)Nc4ccc(OCC)cc4)c(=O)c3s2)CC1` showed an RP-LC retention time of 662 s.
Work on `COc1cccc(NC(=O)N2CCN(c3nc4ccccc4n3C)CC2)c1` yielded an RP-LC retention time of 616 s.
In the case of `O=C(c1ccc(Cn2cncn2)cc1)N1CCN(c2ccccc2)CC1`, the RP-LC retention time is reported as 707 s.
For `O=C(Nc1ccccc1F)C1CCN(S(=O)(=O)c2cc(C(=O)N3CCCC3)cs2)CC1`, the RP-LC retention time was 790 s.
Compound `O=C(NC1CCCC1)c1nc(C(=O)N2CCN(c3ccccn3)CC2)cs1` has an RP-LC retention time of 595 s.
With `Cn1c(N2CCCN(C(=O)c3ccc(Br)cc3)CC2)cc(=O)n(C)c1=O` the RP-LC retention time was 664 s.
For `CC(C)N1C(=O)c2cccnc2Sc2cc(NC(=O)C3CC3)ccc21`, the RP-LC retention time was 733 s.
Compound `CCCNC(=O)C1CCCN(c2nc3ncn(CC(=O)NCc4ccc(F)cc4)c(=O)c3s2)C1` (stereo not drawn) has an RP-LC retention time of 695 s.
For `Cc1cc(C(=O)Nc2nc(-c3cc4ccccc4o3)cs2)on1`, the RP-LC retention time was 948 s.
Compound `O=C(c1ccc2c(c1)OCO2)N1CCCC2(C1)NC(=O)N(Cc1ccccc1)C2=O` (stereo not drawn) has an RP-LC retention time of 762 s.
`Cc1c(Cl)cccc1-n1nc(C)c2c(C(F)(F)F)cc(OCC(=O)NC(C)C)nc21` showed an RP-LC retention time of 1160 s.
`N#Cc1ccc(C(=O)N2CCN3CCS(=O)(=O)N(C4CC4)C(=O)C3C2)cc1` (stereo not drawn) showed an RP-LC retention time of 955 s.
For `O=C(C1CCCCC1)N1CCc2nc(-c3ccc(Cl)cc3)ncc2C1`, the RP-LC retention time was 1180 s.
Work on `CC1=C(c2ccc(F)cc2)S(=O)(=O)N=C1N1CCCN(C(=O)Nc2ccccc2)CC1` yielded an RP-LC retention time of 806 s.
In the case of `O=C(NC1CCCCCC1)C1CCCN(C(=O)c2ccc(F)c(F)c2)C1` (stereo not drawn), the RP-LC retention time is reported as 856 s.
Work on `Cc1ccc(CS(=O)Cc2ccc(C(=O)N3CCN(c4ccccn4)CC3)o2)cc1` (stereo not drawn) yielded an RP-LC retention time of 619 s.
Compound `CCN(CC)C(=O)c1c(C)sc2ccn(CC)c(=O)c12` has an RP-LC retention time of 720 s.
`CSc1cccc(NC(=O)c2nnn(Cc3ccc(F)cc3)c2-n2cccc2)c1` showed an RP-LC retention time of 1150 s.
For `CCn1cc(CC(=O)Nc2ccc(OC)c(OC)c2)c2cccnc21`, the RP-LC retention time was 664 s.
In the case of `O=C(Nc1cccc(Br)c1)N1CCN(Cc2nc3cccnc3n2-c2ccccc2)CC1`, the RP-LC retention time is reported as 703 s.
For `Cc1ccc(-c2coc(-c3ccc(NC(=O)c4ccco4)cc3)n2)c(C)c1`, the RP-LC retention time was 1170 s.
`Cc1cccn2cc(-c3cccc(S(=O)(=O)N4CC(C)OC(C)C4)c3)nc12` (stereo not drawn) showed an RP-LC retention time of 671 s.
